The text below walks through data of ChEMBL document CHEMBL2086348, “Amide-based derivatives of β-alanine hydroxamic acid as histone deacetylase inhibitors: attenuation of potency through resonance effects” (Bioorg Med Chem Lett, 2012).

Assay [1] can be described thus: Antiproliferative activity against human BE(2)-C cells at 50 uM after 72 hrs by Alamar blue assay. Type of assay: functional. (In general: The colour change of resazurin is a common sign of viable cells or microbes.)
Assay [2] deals with T1, Histone deacetylase 1 (Homo sapiens, UniProt Q13547). Nature of the assay: Inhibition of HDAC1 by fluorometric assay.
T1 sequence (Q13547 whole entry): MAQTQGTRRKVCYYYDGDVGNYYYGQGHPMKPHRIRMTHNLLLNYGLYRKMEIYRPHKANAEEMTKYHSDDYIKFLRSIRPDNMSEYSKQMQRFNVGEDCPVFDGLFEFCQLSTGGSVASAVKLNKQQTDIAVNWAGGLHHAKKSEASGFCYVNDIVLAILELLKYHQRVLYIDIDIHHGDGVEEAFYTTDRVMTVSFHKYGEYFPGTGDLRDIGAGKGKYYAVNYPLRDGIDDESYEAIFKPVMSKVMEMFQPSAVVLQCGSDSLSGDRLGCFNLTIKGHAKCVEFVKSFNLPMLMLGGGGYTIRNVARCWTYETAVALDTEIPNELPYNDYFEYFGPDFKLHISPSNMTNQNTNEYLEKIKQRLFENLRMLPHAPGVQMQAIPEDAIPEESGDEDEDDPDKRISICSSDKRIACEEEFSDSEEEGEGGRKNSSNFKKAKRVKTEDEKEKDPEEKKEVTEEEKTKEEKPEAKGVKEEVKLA
Assay [3] concerns the target T1, Histone deacetylase 1. Description: Inhibition of HDAC1 at 250 uM by fluorometric assay.
A short description of assay [4]: Antiproliferative activity against human BE(2)-C cells after 72 hrs by Alamar blue assay. Type of assay: functional, cell-based.
Assay [5] has as its target Histone deacetylase (Homo sapiens) (UniProt Q13547+O15379+Q9UBN7+Q92769+Q9UQL6+Q8WUI4+Q9BY41+Q96DB2+P56524+Q9UKV0+Q969S8). Nature of the assay: Inhibition of HDAC in human HeLa cell extracts at 1 uM. Type of assay: protein assay.

Each structure is given as a SMILES string.

One may read the IC50 as the midpoint of a concentration-inhibition curve. Read a low IC50 as inhibition by little substance. Regarding `CN(C)c1ccc(CC(=O)NCCC(=O)NO)cc1`, the Activity in assay [1] is reported as 62.8%. At Histone deacetylase 1 [2], this compound yielded an IC50 of 38 µM.
A word on the inhibition: it is the relative decrease from the control value, in per cent. High values mean a response far below the control, low ones a response near the control. `CN(C)c1ccc(/C=C/C(=O)NCCC(=O)NO)cc1`: the inhibition against Histone deacetylase 1 [3] worked out at 40%. This compound also yielded an Activity in assay [1] of 57%. This compound also gave an IC50 at Histone deacetylase 1 [2] above 250 µM.
With `O=C(CCNC(=O)Cc1ccc([N+](=O)[O-])cc1)NO`, in assay [1], the Activity came to 87.9%. This compound also displayed an IC50 against Histone deacetylase 1 [2] of 39.4 µM.
As for `Cc1ccc(OCC(=O)NCCC(=O)NO)cc1`, the Activity in assay [1] came out at 80.4%. The compound further returned a 50% inhibitory concentration (IC50) on Histone deacetylase 1 [2] of 84 µM.
What is called IC70 is the concentration at which the effect reaches the 70% level. Read a low IC70 as an effect from little substance. In the case of `CC(/C=C/C(=O)NO)=C\[C@@H](C)C(=O)c1ccc(N(C)C)cc1` [TRICHOSTATIN], the IC70 in assay [4] was 0.05 µM.
In turn, `O=C(/C=C/c1ccccc1)NCCC(=O)NO` showed an inhibition in assay [5] of 19%. This compound also displayed an Activity in assay [1] of 88.6%. For the same compound, it took 67 µM to reach half-maximal inhibition against Histone deacetylase 1 [2] (IC50).
As to `Cc1ccc(CCC(=O)NCCC(=O)NO)cc1`, the Activity in assay [1] is 72.4%. The compound also gave an IC50 on Histone deacetylase 1 [2] of 80 µM.
